Assay results: ChEMBL document CHEMBL1131332, “(-)-6-Chloro-2-[(1-furo[2, 3-c]pyridin-5-ylethyl)thio]-4-pyrimidinamine, PNU-142721, a new broad spectrum HIV-1 non-nucleoside reverse transcriptase inhibitor” (J Med Chem, 1998)

Assays:
[1] = tested on: Human immunodeficiency virus 1; experiment: In vitro antiviral activity against NNRTI-resistant DLVR-IIIB (L100I) HIV-1 variant; format: functional, organism-based; settings: Human immunodeficiency virus 1, IIIB
[2] = tested on: Human immunodeficiency virus 1; experiment: In vitro antiviral activity against NNRTI-resistant DLVR-MF (P236L) HIV-1 variant; format: functional, organism-based; settings: Human immunodeficiency virus 1, IIIB
[3] = tested on: Human immunodeficiency virus 1; experiment: In vitro antiviral activity against NNRTI-resistant IIIB (WT) HIV-1 variant; format: functional, organism-based; settings: Human immunodeficiency virus 1, IIIB
[4] = tested on: Human immunodeficiency virus 1; experiment: In vitro antiviral activity against NNRTI-resistant R88703R-IIIB (Y181C) HIV-1 variant; format: functional, organism-based; settings: Human immunodeficiency virus 1, IIIB
[5] = Pharmacokinetic parameter (CL/F ) was evaluated in Spargue-Dawley rat when given peroral at dose 30 mg/kg; format: ADME, organism-based; parameters: dose 30 mg/kg, route oral; settings: Sprague-Dawley, in vivo, po
[6] = Pharmacokinetic parameter (CL/F) was evaluated in Spargue-Dawley rat when given peroral at dose 80 mg/kg; format: ADME, organism-based; parameters: dose 80 mg/kg, route oral; settings: Sprague-Dawley, in vivo, po
[7] = Pharmacokinetic parameter (Cmax ) was evaluated in Spargue-Dawley rat when given intravenously at dose 15 mg/kg; format: ADME, organism-based; parameters: dose 15 mg/kg, route intravenous; settings: Sprague-Dawley, in vivo, iv
[8] = Pharmacokinetic parameter (Cmax ) was evaluated in Spargue-Dawley rat when given peroral at dose 30 mg/kg; format: ADME, organism-based; parameters: dose 30 mg/kg, route oral; settings: Sprague-Dawley, in vivo, po
[9] = Pharmacokinetic parameter (Cmax ) was evaluated in Spargue-Dawley rat when given peroral at dose 80 mg/kg; format: ADME, organism-based; parameters: dose 80 mg/kg, route oral; settings: Sprague-Dawley, in vivo, po
[10] = Pharmacokinetic parameter (Absolute oral bioavailability) was evaluated in Spargue-Dawley rat when given peroral at dose 30 mg/kg; format: ADME, organism-based; settings: Sprague-Dawley, in vivo
[11] = Pharmacokinetic parameter (tmax ) was evaluated in Spargue-Dawley rat when given intravenously at dose 15 mg/kg; format: ADME, organism-based; parameters: dose 15 mg/kg, route intravenous; settings: Sprague-Dawley, in vivo, iv
[12] = Pharmacokinetic parameter (tmax) was evaluated in Spargue-Dawley rat when given peroral at dose 80 mg/kg; format: ADME, organism-based; parameters: dose 80 mg/kg, route oral; settings: Sprague-Dawley, in vivo, po
[13] = Apparent terminal disposition half-life (t1/2 ) was evaluated in Spargue-Dawley rat when given intravenously at dose 15 mg/kg; format: ADME, organism-based; parameters: dose 15 mg/kg, route intravenous; settings: Sprague-Dawley, in vivo, iv
[14] = Apparent terminal disposition half-life (t1/2 ) was evaluated in Spargue-Dawley rat when given peroral at dose 30 mg/kg; format: ADME, organism-based; parameters: dose 30 mg/kg, route oral; settings: Sprague-Dawley, in vivo, po
[15] = Apparent terminal disposition half-life (t1/2) was evaluated in Spargue-Dawley rat when given peroral at dose 80 mg/kg; format: ADME, organism-based; parameters: dose 80 mg/kg, route oral; settings: Sprague-Dawley, in vivo, po
[16] = Pharmacokinetic parameter (Vss ) was evaluated in Spargue-Dawley rat when given intravenously at dose 15 mg/kg; format: ADME, organism-based; parameters: dose 15 mg/kg, route intravenous; settings: Sprague-Dawley, in vivo, iv, read-out: Vss
[17] = biological target: Human immunodeficiency virus type 1 reverse transcriptase (Human immunodeficiency virus 1, UniProt Q72547, Y181C); experiment: Inhibitory activity against Y181C mutant HIV-1 reverse transcriptase
[18] = biological target: Human immunodeficiency virus type 1 reverse transcriptase (Human immunodeficiency virus 1, UniProt Q72547, Y188H); experiment: Inhibitory activity against Y188H mutant HIV-1 reverse transcriptase
[19] = biological target: Human immunodeficiency virus type 1 reverse transcriptase (Human immunodeficiency virus 1, UniProt Q72547); experiment: Inhibitory activity against wild type HIV-1 reverse transcriptase (WT-RT)
[20] = biological target: Human immunodeficiency virus type 1 reverse transcriptase (Human immunodeficiency virus 1, UniProt Q72547, E233V); experiment: Inhibitory activity against E233V mutant HIV-1 reverse transcriptase
[21] = biological target: Human immunodeficiency virus type 1 reverse transcriptase (Human immunodeficiency virus 1, UniProt Q72547, L100I); experiment: Inhibitory activity against L100I mutant HIV-1 reverse transcriptase
[22] = biological target: Human immunodeficiency virus type 1 reverse transcriptase (Human immunodeficiency virus 1, UniProt Q72547, P236L); experiment: Inhibitory activity against P236L mutant HIV-1 reverse transcriptase
[23] = tested on: Human immunodeficiency virus 1; experiment: In vitro antiviral activity against NNRTI-resistant L-697661R-IIIB (Y181C) HIV-1 variant; format: functional, organism-based; settings: Human immunodeficiency virus 1, IIIB
[24] = Pharmacokinetic parameter (Absolute oral bioavailability) was evaluated in Spargue-Dawley rat when given peroral at dose 80 mg/kg; format: ADME, organism-based; settings: Sprague-Dawley, in vivo
[25] = Pharmacokinetic parameter (tmax ) was evaluated in Spargue-Dawley rat when given peroral at dose 30 mg/kg; format: ADME, organism-based; parameters: dose 30 mg/kg, route oral; settings: Sprague-Dawley, in vivo, po
[26] = tested on: Human immunodeficiency virus 1; experiment: Inhibition of p24 production in NNRTI-resistant DLVR-MF (P236L) HIV-1 variant at concentration 0.01 um; format: functional
[27] = tested on: Human immunodeficiency virus 1; experiment: Inhibition of p24 production in NNRTI-resistant L-697661R-IIIB (Y181C) HIV-1 variant at concentration 3 um; format: functional

Row | Structure (SMILES) | IC50 [1] | IC50 [2] | IC50 [3] | IC50 [4] | IC50 [17] | IC50 [18] | IC50 [19] | IC50 [20] | IC50 [21] | IC50 [22] | IC50 [23] | other results
1 | CC(C)Nc1cccnc1N1CCN(C(=O)c2cc3cc(NS(C)(=O)=O)ccc3[nH]2)CC1 [DELAVIRDINE] | > 10000 nM | > 10000 nM | 50 nM | 1000 nM |  |  |  |  |  |  |  | 
2 | C[C@H](Sc1nc(N)cc(Cl)n1)c1cc2ccoc2cn1 | 70 nM | 8 nM | 1 nM | 170 nM | 179 nM | 77 nM | 20 nM | 17 nM | 39 nM | 22 nM | 1100 nM | CL/F [5]: 7.1 mL/min/kg; CL/F [6]: 7.1 mL/min/kg; Cmax [7]: 123 µM; Cmax [8]: 52 µM; Cmax [9]: 103 µM; bioavailability [10]: 94%; Tmax [11]: 1.98 min; Tmax [12]: 3.8 h; half-life [13]: 0.7 h; half-life [14]: 0.78 h; half-life [15]: 1.5 h; Vd [16]: 0.55 L/kg; bioavailability [24]: 94%; Tmax [25]: 1.4 h
3 | CCc1cc(NCc2nc3c(Cl)ccc(Cl)c3o2)c(O)nc1C [L-697661] | 4000 nM | 430 nM | 110 nM | 7700 nM |  |  |  |  |  |  | > 10000 nM | 
4 | CC(=O)c1ccccc1NC(C(N)=O)c1c(Cl)cccc1Cl (configuration not stated) | 6500 nM | 80 nM | 150 nM | > 10000 nM |  |  |  |  |  |  | > 10000 nM | 
5 | CC(Sc1nc(N)cc(Cl)n1)c1cc2ccoc2cn1 (configuration not stated) | 60 nM | 10 nM | 2 nM | 170 nM | 360 nM | 55 nM | 24 nM | 44 nM | 44 nM | 22 nM | 2400 nM | 
6 | C[C@@H](Sc1nc(N)cc(Cl)n1)c1cc2ccoc2cn1 |  | > 10 nM |  |  | > 50000 nM |  | 85 nM |  |  | 25 nM | > 3000 nM | Inhibition [26]: 0%; Inhibition [27]: 0%
